The values below are quoted from earlier work in patent US20250121105A1, “METHODS FOR TREATING CANCER USING COMBINATIONS OF PARP INHIBITORS AND ANTIBODY RADIOCONJUGATES” (ACTINIUM PHARMACEUTICALS, INC., priority 2019, published 2025).

Read-outs that look alike come from different tables or passages of the source.

The test system of series [1] is glioblastoma cancer cells. The following applies: veliparib (ABT-888) plus ionizing radiation (IR).
The mark [2] stands for this setting: order of magnitude only, stated in the background.

Turning to `NC(=O)c1cccc2cn(-c3ccc([C@@H]4CCCNC4)cc3)nc12` [niraparib], the IC50 values result with PARP (setting [2]) is given as “nanomolar range”.

On to `CNCc1ccc(-c2[nH]c3cc(F)cc4c3c2CCNC4=O)cc1` [rucaparib], for which the IC50 values entry in the series with PARP (setting [2]) is “nanomolar range”.

In the case of `Cn1ncnc1[C@H]1c2n[nH]c(=O)c3cc(F)cc(c23)N[C@@H]1c1ccc(F)cc1` [talazoparib], the IC50 values entry with PARP (setting [2]) is “picomolar range”.

With `C[C@]1(c2nc3c(C(N)=O)cccc3[nH]2)CCCN1` [veliparib], the “sensitivity of glioblastoma cancer cells to PARPi with ionizing radiation” value in series [1] is “IR sensitizes glioblastoma cancer cells to PARPi”. In the series on PARP, the IC50 values result is “nanomolar range”.
